{"source": "patent EP2785358B1", "about": "“INSULIN-MIMETICS AS THERAPEUTIC ADJUNCTS FOR BONE REGENERATION” (priority 2011, dated 2013)", "key": {"[1]": {"tested_on": "femur fractures", "assay": "Long-term radiographic analysis at twelve weeks, local VAC", "assay_type": "in vivo, normal (non-diabetic) rats", "conditions": "for ectopic bone formation on radiographs: twelve weeks post-fracture", "experimental": "The effect of local vanadium therapy on healing of femur fractures in normal (non-diabetic) rats was measured by radiographic analysis."}, "[2]": {"tested_on": "femur fractures", "assay": "Early immunohistochemistry (BrdU cell proliferation), local VAC", "assay_type": "in vivo, BB Wistar rats", "experimental": "At days 2, 4, and 7, and 10, animals were injected intraperitoneally with 30 mg/kg of 5-bromo-2'deoxyuridine (BrdU, Sigma Chemical Co., St. Louis, MO) one hour prior to sacrifice to label replicating cells as a measure of cellular proliferation. The fractured femurs were resected and fixed in formalin, decalcified (Immunocal, Decal Corp., Tallman, NY), embedded in paraffin, and sectioned longitudinally (5 µm thick). Cells positive for BrdU incorporation were detected by immunohistochemistry using commercially available reagents (DAKO Corp., Carpentaria, California). Digital images of each fracture were collected with an Olympus BH2-RFCA microscope equipped with a Nikon DXM1200f camera. For each specimen, callus area was measured and the BrdU positive cells in the periosteal callus region were counted using Image Pro Plus software. All BrdU positive cells in the external callus to a maximum of 1 cm proximal and distal of the fracture site and 3 mm from the external surface of the femur were counted. The number of BrdU positive cells was normalized per unit area of callus and only one datum per rat (BrdU positive cells per mm2) was used for the statistical analysis."}, "[3]": {"tested_on": "femur fractures", "assay": "Torsional mechanical testing, local VAC without a carrier in normal rats", "assay_type": "in vivo, non-diabetic BB Wistar rats", "design": "Percent Effective Shear Modulus / Percent Effective Shear Stress: scale not given: direction of the effect not stated beside the values", "experimental": "A closed mid-diaphyseal fracture surgery was performed on the right femur of each rat as described previously. […] A closed, midshaft fracture was then created using a three-point bending fracture instrument (BBC Specialty Automotive, Linden NJ) and confirmed with X-rays immediately post-fracture."}, "[4]": {"assay": "Vanadium quantification in femur by atomic absorption spectrophotometry", "assay_type": "in vivo, BB Wistar rats", "conditions": "0.1 mL of 4.35 mg/mL VAC solution (approximately 1.5 mg VAC/kg) into femoral canal", "experimental": "BB Wistar rats were anesthetized and confirmed to be non-responsive to external stimuli before beginning the surgical procedure. The anesthetized rat was be exsanguinated by cardiac puncture using a 10 ml syringe with a 22 gauge needle after shallow puncture just lateral to the sternum and through the intercostal space. After puncturing the dermis and cardiac wall slight backpressure was placed on the plunger to withdraw blood from the ventricle. The collected blood was transferred to an appropriate container used for collection of plasma (heparinized) or serum (non-heparinized). Following the cardiac puncture, the rats were euthanized via cervical dislocation.\nThe excised femora were be stripped of adhering muscle, tendon and other tissue after which the bones were rinsed three times with deionized water, and then placed on glassine paper and air dried. The pin was rinsed once and stored in a clean conical tube. The liver, kidneys, brain, and left humerous collected were rinsed 3x and air dried. The objective of \"drying\" was to remove adhering water droplets after the water rinse and to allow the true tissue weight to be recorded as precisely as possible. […] The organs were then placed into a low temperature (-80 degrees Celsius) freezer for storage until future analysis (quantification not currently planned). […]"}, "[5]": {"tested_on": "femur fractures", "assay": "Histomorphometry, local VAC without a carrier", "assay_type": "in vivo, BB Wistar rats", "conditions": "for % Cartilage / % Mineralized Tissue / Callus Area: no carrier", "excerpt": "Two independent reviewers were used to minimize inconsistencies."}, "[6]": {"conditions": "VAC 0.5 mg/kg local, no carrier, normal rats, 4 weeks"}, "[7]": {"conditions": "VAC 0.5 mg/kg local, no carrier, normal rats, 4 weeks, normalized to intact femur"}, "[8]": {"conditions": "VAC 1.5 mg/kg Autoclaved, no carrier, four weeks"}, "[9]": {"conditions": "VAC 1.5 mg/kg Gamma Irradiated, no carrier, four weeks"}, "[10]": {"conditions": "VAC 1.5 mg/kg local, no carrier, normal rats, 5 weeks"}, "[11]": {"conditions": "VAC 1.5 mg/kg local, rats of advanced age (190-195 days), four weeks"}, "[12]": {"conditions": "VAC 1.5 mg/kg without sterilization, no carrier, four weeks"}, "[13]": {"conditions": "VAC 1.5 mg/kg without sterilization, no carrier, four weeks, normalized to intact femur"}, "[14]": {"conditions": "VAC 3.0 mg/kg local, no carrier, normal rats, 4 weeks"}, "[15]": {"conditions": "VAC 3.0 mg/kg local, no carrier, normal rats, 4 weeks, normalized to intact femur"}, "[16]": {"conditions": "VAC 1.5 mg/kg local, 10 Days Post-Fracture"}, "[17]": {"conditions": "VAC 1.5 mg/kg local, 14 Days Post-Fracture"}, "[18]": {"conditions": "VAC 1.5 mg/kg local, 21 Days Post-Fracture"}, "[19]": {"conditions": "VAC 3.0 mg/kg local, 10 Days Post-Fracture"}, "[20]": {"conditions": "VAC 3.0 mg/kg local, 14 Days Post-Fracture"}, "[21]": {"conditions": "VAC 3.0 mg/kg local, 21 Days Post-Fracture"}}, "note": "Values joined by “and” are separate entries in the source; they are usually repeats but may differ in a detail not shown here. Equal entries are not always repeated. Marks after values point to notes of the source that are not given here.", "data": [{"compound": "CC(=O)/C=C(/C)[O-].CC(=O)/C=C(/C)[O-].[O]=[V+2]", "note": "[VAC, Vanadyl acetylacetonate]", "values": [{"measurement": "ectopic bone formation on radiographs", "setting": "[1]; VAC high (3.0 mg/kg)", "result": "no evidence of ectopic bone formation"}, {"measurement": "ectopic bone formation on radiographs", "setting": "[1]; VAC low (1.5 mg/kg)", "result": "no evidence of ectopic bone formation"}, {"measurement": "toxic/carcinogenic effect (remodeling of femora)", "setting": "[1]; local VAC, throughout fracture healing, normal remodeling", "result": "no evidence of a toxic/carcinogenic effect"}, {"measurement": "cell proliferation (BrdU positive cells) in the periosteum versus control", "setting": "[2]; seven and ten days post-fracture, p < 0.05", "result": "significantly more proliferating cells per unit area"}, {"measurement": "cell proliferation (BrdU positive cells) versus control", "setting": "[2]; two or four days post-fracture", "result": "no significant differences"}, {"measurement": "Percent maximum torsional rigidity", "setting": "[3]; VAC 0.25 mg/kg local, no carrier, normal rats, 4 weeks, normalized to intact femur", "result": "67 ± 21 ^∗ Percent"}, {"measurement": "Maximum Torque to Failure", "setting": "[3]; [6]", "result": "362 ± 49 ^∗,# Nmm"}, {"measurement": "Maximum Torsional Rigidity", "setting": "[3]; [6]", "result": "45,877 ± 13,079^∗ Nmm^2/rad"}, {"measurement": "Percent Maximum Torque to Failure", "setting": "[3]; [7]", "result": "72 ± 19 ^∗ Percent"}, {"measurement": "Percent maximum torsional rigidity", "setting": "[3]; [7]", "result": "103 ± 23 ^∗,# Percent"}, {"measurement": "Effective Shear Modulus", "setting": "[3]; [8]", "result": "9.6×10^2 ± 7.8×10^2 MPa"}, {"measurement": "Maximum Torsional Rigidity", "setting": "[3]; [8]", "result": "3.4×10^4 ± 1.5×10^4* Nmm^2/rad and 3.4×10^4 ± 1.5×10^4∗ Nmm^2/rad"}, {"measurement": "Percent maximum torsional rigidity", "setting": "[3]; VAC 1.5 mg/kg Autoclaved, no carrier, four weeks, normalized to intact femur", "result": "70 ± 31 ^∗ Percent"}, {"measurement": "Effective Shear Modulus", "setting": "[3]; [9]", "result": "7.9×10^2 ± 2.4×10^2 MPa"}, {"measurement": "Maximum Torsional Rigidity", "setting": "[3]; [9]", "result": "2.6×10^4 ± 3.7×10^3 Nmm^2/rad"}, {"measurement": "Maximum Torque to Failure", "setting": "[3]; [10]", "result": "471 ± 91", "unit": "Nmm"}, {"measurement": "Maximum Torsional Rigidity", "setting": "[3]; [10]", "result": "34,522 ± 8,347^* Nmm^2/rad"}, {"measurement": "Effective Shear Modulus", "setting": "[3]; [11]", "result": "1.3×10^3 ± 1.3×10^3 MPa"}, {"measurement": "Effective Shear Stress", "setting": "[3]; [11]", "result": "43± 17", "unit": "MPa"}, {"measurement": "Maximum Torsional Rigidity", "setting": "[3]; [11]", "result": "3.0×10^4 ± 1.8×10^4 Nmm^2/rad"}, {"measurement": "Mean Angle at Failure", "setting": "[3]; [11]", "result": "12± 4", "unit": "degrees"}, {"measurement": "Percent Maximum Torque to Failure", "setting": "[3]; VAC 1.5 mg/kg local, rats of advanced age (190-195 days), four weeks, normalized to intact femur", "result": "44 ± 10^∗ Percent"}, {"measurement": "Effective Shear Modulus", "setting": "[3]; [12]", "result": "2.5×10^3 ± 2.4×10^3 MPa"}, {"measurement": "Effective Shear Stress", "setting": "[3]; [12]", "result": "69 ± 59", "unit": "MPa"}, {"measurement": "Maximum Torque to Failure", "setting": "[3]; [12]", "result": "329 ± 117 ^∗ Nmm"}, {"measurement": "Maximum Torsional Rigidity", "setting": "[3]; [12]", "result": "3.5×10^4 ± 1.7×10^4* Nmm^2/rad and 3.5×10^4 ± 1.7×10^4∗ Nmm^2/rad"}, {"measurement": "Percent Effective Shear Modulus", "setting": "[3]; [13]", "result": "23 ± 12 ^∗ Percent"}, {"measurement": "Percent maximum torsional rigidity", "setting": "[3]; [13]", "result": "76 ± 28 ^∗ Percent"}, {"measurement": "Effective Shear Modulus", "setting": "[3]; [14]", "result": "2,948 ± 1,218 ^∗ MPa"}, {"measurement": "Effective Shear Stress", "setting": "[3]; [14]", "result": "101 ± 18 ^∗,#,& MPa"}, {"measurement": "Maximum Torque to Failure", "setting": "[3]; [14]", "result": "409 ± 43 ^∗,# Nmm"}, {"measurement": "Maximum Torsional Rigidity", "setting": "[3]; [14]", "result": "41,007 ± 11,236 ^∗ Nmm^2/rad"}, {"measurement": "Percent Effective Shear Modulus", "setting": "[3]; [15]", "result": "20 ± 11 ^∗ Percent"}, {"measurement": "Percent Effective Shear Stress", "setting": "[3]; [15]", "result": "30 ± 12 ^∗,# Percent"}, {"measurement": "Percent Maximum Torque to Failure", "setting": "[3]; [15]", "result": "79 ± 12 ^∗ Percent"}, {"measurement": "Percent maximum torsional rigidity", "setting": "[3]; [15]", "result": "78 ± 10 ^∗ Percent"}, {"measurement": "Maximum Torsional Rigidity", "setting": "[3]; VAC 3.0 mg/kg local, no carrier, normal rats, 5 weeks", "result": "37,496 ± 12,846^∗ Nmm^2/rad"}, {"measurement": "increase in mechanical parameter of torsion", "setting": "[3]; VAC therapeutic dosage range 0.5 to 3.0 mg/Kg", "result": "two to three-fold"}, {"measurement": "time locally injected VAC remains bound within the fractured femora", "setting": "[4]", "result": "approximately two weeks"}, {"measurement": "% Cartilage", "setting": "[5]; [16]", "result": "30.6 ± 12.4^∗ (n=7) %"}, {"measurement": "% Mineralized Tissue", "setting": "[5]; [16]", "result": "15.8 ± 5.1 (n=7) %"}, {"measurement": "Callus Area", "setting": "[5]; [16]", "result": "18.4 ± 3.6 (n=7) mm^2"}, {"measurement": "% Cartilage", "setting": "[5]; [17]", "result": "14.2 ± 4.9 (n=5) %"}, {"measurement": "% Mineralized Tissue", "setting": "[5]; [17]", "result": "21.3 ± 2.1^∗ (n=5) %"}, {"measurement": "Callus Area", "setting": "[5]; [17]", "result": "21.7 ± 5.0 (n=5) mm^2"}, {"measurement": "% Cartilage", "setting": "[5]; [18]", "result": "11.0± 4.7 (n=5) %"}, {"measurement": "% Mineralized Tissue", "setting": "[5]; [18]", "result": "32.7 ± 2.9^∗ (n=5) %"}, {"measurement": "Callus Area", "setting": "[5]; [18]", "result": "20.1 ± 4.5 (n=5) mm^2"}, {"measurement": "percent cartilage compared to controls", "setting": "[5]; VAC 1.5 mg/kg, 7 days (and 10 days), p < 0.05", "result": "statistically higher"}, {"measurement": "% Cartilage", "setting": "[5]; [19]", "result": "17.8± 5.5 (n=5) %"}, {"measurement": "% Mineralized Tissue", "setting": "[5]; [19]", "result": "15.2 ± 3.4 (n=5) %"}, {"measurement": "Callus Area", "setting": "[5]; [19]", "result": "18.6 ± 2.9 (n=5) mm^2"}, {"measurement": "% Cartilage", "setting": "[5]; [20]", "result": "13.0 ± 6.4 (n=5) %"}, {"measurement": "% Mineralized Tissue", "setting": "[5]; [20]", "result": "21.9 ± 3.2^∗ (n=5) %"}, {"measurement": "Callus Area", "setting": "[5]; [20]", "result": "19.3 ± 3.1 (n=5) mm^2"}, {"measurement": "% Cartilage", "setting": "[5]; [21]", "result": "9.4± 5.7 (n=4) %"}, {"measurement": "% Mineralized Tissue", "setting": "[5]; [21]", "result": "33.4 ± 5.2 (n=4) %"}, {"measurement": "Callus Area", "setting": "[5]; [21]", "result": "20.3± 5.1 (n=4) mm^2"}]}]}
